Assay results taken from patent US20260206761A1, “HETEROARYL-TRIAZOLE COMPOUNDS AS PESTICIDES” (Bayer Aktiengesellschaft, priority 2019, published 2026).

How the values were obtained:
Assay type in all cases: in vivo
[1] = test system: fall armyworm larvae (Spodoptera frugiperda); assay: Spodoptera frugiperda spray test; details: 168 h, read-out: activity (mortality)
Experimental: Spodoptera frugiperda—Spray Test
Solvent: 78.0 parts by weight acetone • 1.5 parts by weight dimethylformamide
(§1) Emulsifier: alkylarylpolyglycol ether
(§2) To produce a suitable preparation of active compound, 1 part by weight of active compound is mixed with the stated amount of solvents and is diluted with water, containing an emulsifier concentration of 1000 ppm, to the desired concentration. Further test concentrations are prepared by dilution with emulsifier containing water.
Maize (Zea mays) leaf sections are sprayed with a preparation of the active ingredient of the desired concentration. Once dry, the leaf sections are infested with fall armyworm larvae (Spodoptera frugiperda).
After 7 days mortality in % is determined. 100% means all caterpillars have been killed and 0% means none of the caterpillars have been killed.

[2] = test system: Aedes aegypti strain MONHEIM; assay: Aedes aegypti test (AEDSAE surface treatment & contact assay); details: 24 hours after contact, read-out: efficacy (mortality); for mortality at 4 mg/m2: surface concentration 4 mg/m^2, exposure 30 minutes; for mortality at 20 mg/m2: surface concentration 20 mg/m^2, exposure 30 minutes
Experimental: Aedes aegypti Test (AEDSAE Surface Treatment & Contact Assay)
Solvent: Aceton+2000 ppm rapeseed oil methyl ester (RME)
In order to produce a sufficient, active ingredient containing solution it is necessary to solve the test compound in the solvent-mix (acetone at 2 mg/ml/RME 2000 ppm). This solution is pipetted onto a glazed tile and after evaporation of the acetone, adult mosquitoes of the species Aedes aegypti strain MONHEIM are placed onto the dried surface. The exposure time is 30 minutes. Mortality in percent (%) is determined 24 hours after contact of the insects to the treated surface. 100% mortality means that all tested insects are dead, whereas 0% means that no insect died.

[3] = test system: Rhipicephalus microplus larvae (strain Parkhurst, resistant against synthetic pyrethroids); assay: Rhipicephalus (Boophilus) microplus in-vitro contact test, larval cattle tick; details: after 48 hours, read-out: activity (efficacy: larvae dead or moribund); for pest or weed control at 100 g/ha: application rate 1 pg/cm^2 (=100 g/ha); for pest or weed control at 500 g/ha: application rate 5 pg/cm^2 (=500 g/ha)
Experimental: Rhipicephalus (Boophilus) microplus—In-Vitro Contact Tests Larval Cattle Tick (Strain Parkhurst. Resistant Against Synthetic Pyrethroids)
(§3) 9 mg compound is solved in 1 mL acetone and diluted with acetone to the desired concentration. 250 μL of the test solution is filled in 25 mL glass test tubes and homogeneously distributed on the inner walls by rotation and tilting on a shaking device (2 h at 30 rpm). With a compound concentration of 900 ppm, an inner surface of 44.7 cm^2 and a homogeneous distribution, a dose of 5 μg/cm^2 is achieved.
After the solvent has evaporated, each test tube is filled with 20-50 cattle tick larvae (Rhipicephalus microplus), closed with a perforated lid and incubated in a horizontal position at 85% relative humidity and 27° C. in an incubator. After 48 hours efficacy is determined. The larvae are patted on the ground of the tubes and negative geotactic behaviour is recorded.
An efficacy of 100% means all larvae are dead or moribund; 0% means no larvae are dead or moribund.

[4] = test system: adult unfed cat fleas (Ctenocephalides felis); assay: Ctenocephalides felis oral test; details: 48 h, read-out: activity (mortality)
Experimental: Ctenocephalides felis—Oral Test
(§4) Solvent: dimethyl sulfoxide
To produce a suitable preparation of active compound, 10 mg of active compound are dissolved in 0.5 mL solvent, and the concentrate is diluted with cattle blood to the desired concentration.
Approximately 20 adult unfed cat fleas (Ctenocephalides felis) are placed in flea chambers. The blood chamber, sealed with parafilm on the bottom, are filled with cattle blood supplied with compound solution and placed on the gauze covered top of the flea chamber, so that the fleas are able to suck the blood. The blood chamber is heated to 37° C. whereas the flea chamber is kept at room temperature.
After 2 days mortality in % is determined. 100% means all the fleas have been killed; 0% means none of the fleas have been killed.

[5] = test system: larvae of the banded cucumber beetle (Diabrotica balteata); assay: Diabrotica balteata spray test; details: 168 h, after 7 days, read-out: activity (efficacy: seedlings grown); for pest or weed control at 100 g/ha: application rate 100 g/ha (=32 pg/well); for pest or weed control at 500 g/ha: application rate 500 g/ha (=160 pg/well)
Experimental: Diabrotica balteata—spray test
(§5) Solvent: 78.0 parts by weight of acetone • • 1.5 parts by weight of dimethylformamide
as §1
as §2, with “solvent,” for “solvents”, “and the concentrate” for “and”
Soaked wheat seeds (Triticum aestivum) are placed in a multiple well plate filled with agar and some water and are incubated for 1 day to germinate (5 seeds per well). The germinated wheat seeds are sprayed with a test solution containing the desired concentration of the active ingredient. Afterwards each unit is infected with 10-20 larvae of the banded cucumber beetle (Diabrotica balteata).
After 7 days efficacy in % is determined. 100% means all the seedlings have grown up like in the untreated, uninfected control; 0% means none of the seedlings have grown.

[6] = test system: adult engorged female ticks (Rhipicephalus microplus); assay: Rhipicephalus (Boophilus) microplus injection test; details: 168 h, egg deposition after 7 days, read-out: activity (efficacy: infertile eggs); for pest or weed control at 4 pg: application rate 4 pg/animal; for pest or weed control at 0.02 mg: application rate 20 μg/animal
Experimental: Rhipicephalus (Boophilus) microplus—Injection Test
as §4
To produce a suitable preparation of active compound, 10 mg of active compound are dissolved in 0.5 mL solvent, and the concentrate is diluted with solvent to the desired concentration.
Five adult engorged female ticks (Rhipicephalus microplus) are injected with 1 μL compound solution into the abdomen. The ticks are transferred into replica plates and incubated in a climate chamber.
After 7 days egg deposition of fertile eggs is monitored. Eggs where fertility is not visible are stored in a climate chamber till hatching after about 42 days. An efficacy of 100% means all eggs are infertile; 0% means all eggs are fertile.

[7] = test system: green peach aphid (Myzus persicae); assay: Myzus persicae oral test; details: 120 h, application rate 4 ppm, after 5 days
Experimental: Solvent: 100 parts by weight acetone
To produce a suitable preparation of active compound, 1 part by weight of active compound is mixed with the stated amount of solvent, and the concentrate is diluted with water to the desired concentration.
50 μL compound solution is filled in microtiter plates and 150 μL IPL41 insect medium (33%+15% sugar) is added to obtain a total volume of 200 μL per well. Afterwards the plates are sealed with parafilm through which a mixed population of the green peach aphid (Myzus persicae) can suck on the compound preparation.
After 5 days mortality in % is determined. 100% means all aphids have been killed and 0% means none of the aphids have been killed.

[8] = test system: larvae of the southern green stink bug (Nezara viridula); assay: Nezara viridula spray test; details: 96 h, application rate 500 g/ha, after 4 days
Experimental: Nezara viridula—Spray Test
as §5, §1
as §2, with “solvent,” for “solvents”, “and the concentrate” for “and”
Barley plants (Hordeum vulgare) infested with larvae of the southern green stink bug (Nezara viridula) are sprayed with a test solution containing the desired concentration of the active ingredient.
After 4 days mortality in % is determined. 100% means all the stink bugs have been killed; 0% means none of the stink bugs have been killed.

[9] = test system: adult brown dog ticks (Rhipicephalus sanguineus); assay: Rhipicephalus sanguineus in-vitro contact test, adult brown dog ticks; details: after 48 hours, read-out: activity (efficacy: ticks dead or moribund); for pest or weed control at 5 µg/cm2, 500 g/ha: application rate 5 μg/cm^2 (=500 g/ha); for pest or weed control at 100 g/ha: application rate 1 pg/cm^2 (=100 g/ha)
Experimental: Rhipicephalus sanguineus—In-Vitro Contact Tests with Adult Brown Dog Ticks
as §3
After the solvent has evaporated, each test tube is filled with 5-10 adult brown dog ticks (Rhipicephalus sanguineus), closed with a perforated lid and incubated in a lying position at room temperature and relative humidity. After 48 hours efficacy is determined. The ticks are patted on the ground of the tubes and are incubated on a heating plate at 45-50° C. for at most 5 minutes. Immotile or uncoordinated moving ticks, which are not able to escape the heat by climbing upwards, are marked as dead or moribund.
An efficacy of 100% means all ticks are dead or moribund; 0% means no ticks are dead or moribund.

Structure (SMILES)	mortality at 500 g/ha [1]	mortality at 4 mg/m2 [2]	pest or weed control at 100 g/ha [3]	pest or weed control at 500 g/ha [3]	mortality at 100 ppm [4]	pest or weed control at 100 g/ha [5]	pest or weed control at 500 g/ha [5]	pest or weed control at 4 pg [6]	pest or weed control at 0.02 mg [6]	mortality at 100 g/ha [1]	mortality at 4 ppm [7]	mortality at 20 mg/m2 [2]	mortality at 500 g/ha [8]	pest or weed control at 5 µg/cm2, 500 g/ha [9]	pest or weed control at 100 g/ha [9]
CCCc1nc([C@H](C)NC(=O)c2cc(Cl)cc(C3CC3)c2)n(-c2ccc(C#N)cn2)n1 [I-1]	100%	80 to 100%	100%	100%	100%	100%	100%	100%	100%						
CC(NC(=O)c1cc(Cl)cc(S(C)(=O)=O)c1)c1nc(C(F)F)nn1-c1ccc(C#N)cn1 (centres unmarked) [I-6]	100%		100%	100%	100%			100%	100%	83%	100%				
COc1nc([C@H](C)NC(=O)c2csc(Cl)c2)n(-c2ccc(C#N)cn2)n1 [I-8]		80 to 100%			80%	80%	100%	80%	100%			80 to 100%			
CCOc1nc([C@H](C)NC(=O)c2cc(Cl)cc(S(C)(=O)=O)c2)n(-c2ccc(C#N)cn2)n1 [I-9]	100%		100%	100%	100%		100%	100%	100%	100%	100%				
C[C@H](NC(=O)c1cc(Cl)cc(S(=O)(=O)CC(F)(F)F)c1)c1nc(C2CC2)nn1-c1ncc(Cl)cn1 [I-26]			90%	90%	100%	100%		100%	100%		90%				
CC(NC(=O)c1cc(Cl)cc(S(C)(=O)=O)c1)c1nc(Br)nn1-c1ccc(Cl)cn1 (centres unmarked) [I-28]	100%		100%	100%	100%	100%	100%	100%	100%	100%	90%		100%		
CC(NC(=O)c1cc(C(F)(F)F)n(C)n1)c1nc(Cl)nn1-c1ncccn1 (centres unmarked) [I-31]			100%	100%	90%			100%	100%		90%				
CC(NC(=O)c1cc(C(F)(F)F)n(C)n1)c1nc(Cl)nn1-c1ccc(C#N)cn1 (centres unmarked) [I-33]			100%	100%	100%			80%	80%					80%	
CC(NC(=O)c1cc(C(F)(F)F)n(C)n1)c1nc(Br)nn1-c1ncccn1 (centres unmarked) [I-39]			100%	100%	100%			100%						80%	80%
CC(NC(=O)c1cc(Br)cc(C2(C(F)(F)F)CC2)c1)c1nc(Cl)nn1-c1ncccn1 (centres unmarked) [I-47]		80 to 100%	90%	90%	80%	100%		100%	100%	100%	100%	80 to 100%			
CC(NC(=O)c1cc(Br)cc(C2(C(F)(F)F)CC2)c1)c1nc(Br)nn1-c1ncccn1 (centres unmarked) [I-48]			90%	90%	100%			100%		100%	100%				
Cc1nc([C@H](C)NC(=O)c2csc(Cl)c2)n(-c2cc(C#N)ccn2)n1 [II-19]		80 to 100%			100%		100%	100%	100%						
C[C@H](NC(=O)c1cc(Cl)cc(S(C)(=O)=O)c1)c1ncnn1-c1ncc(I)s1 [II-51, 3-chloro-N-{(1S)-1-[1-(5-iodo-1,3-thiazol-2-yl)-1H-1,2,4-triazol-5-yl]ethyl}-5-(methylsulfonyl)benzamide]			100%	100%	100%	100%		100%	100%	100%					80%
